IC50 and response vs control in vivo data for 16 compounds are collected here from US10696691B2, “BACE1 inhibitors” (Hoffmann-La Roche Inc., priority 2015, dated 2020).

The target of one experiment is T1, BACE1 (Homo sapiens, UniProt P56817).
T1 construct: endogenous in cells; host or cells: HEK293 APP cells
T1 sequence (P56817 46-501): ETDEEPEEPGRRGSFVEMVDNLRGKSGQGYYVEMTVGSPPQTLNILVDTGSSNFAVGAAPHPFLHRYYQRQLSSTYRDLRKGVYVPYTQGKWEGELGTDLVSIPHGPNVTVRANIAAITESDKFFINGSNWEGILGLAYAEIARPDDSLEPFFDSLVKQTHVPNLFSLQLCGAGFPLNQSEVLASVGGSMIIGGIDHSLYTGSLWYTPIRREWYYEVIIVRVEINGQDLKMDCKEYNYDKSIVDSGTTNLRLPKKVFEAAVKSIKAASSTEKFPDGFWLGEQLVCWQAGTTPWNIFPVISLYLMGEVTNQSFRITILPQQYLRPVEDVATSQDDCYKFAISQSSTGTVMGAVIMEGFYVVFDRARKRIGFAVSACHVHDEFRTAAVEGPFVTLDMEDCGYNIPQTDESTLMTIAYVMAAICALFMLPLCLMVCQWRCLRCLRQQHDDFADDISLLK
Nature of the experiment: Cellular Aβ-lowering assay (Abeta 40 AlphaLISA, HEK293 APP cells). The settings on record: 18-20 hrs incubation, Aβ 40 in culture supernatants, read-out: BACE1 cell act. Aβ40 IC50. The class given is cell-based. The method, then:
Cellular Aβ-Lowering Assay:
The Abeta 40 AiphaLISA Assay can be used. The HEK293 APP cells were seeded in 96 well Microtiter plates in cell culture medium (Iscove's, plus 10% (v/v) fetal bovine serum, penicillin/streptomycin) to about 80% confluency and the compounds were added at a 3× concentration in ⅓ volume of culture medium (final DMSO concentration was kept at 1% v/v). After 18-20 hrs incubation at 37° C. and 5% CO2 in a humidified incubator, the culture supernatants were harvested for the determination of Aβ 40 concentrations using Perkin-Elmer Human Amyloid beta 1-40 (high specificity) Kit (Cat # AL275C).
In a Perkin-Elmer White Optiplate-384 (Cat #6007290), 2 ul culture supernatants were combined with 2 μl of a 10× AlphaLISA Anti-hABAcceptor beads+Biotinylated Antibody Anti-AD 1-40 Mix (50 μg/mL/5 nM). After 1 hour room temperature incubation, 16 μl of a 1.25× preparation of Streptavidin (SA) Donor beads (25 μg/mL) were added and incubated for 30 minutes in the Dark. Light Emission at 615 nm was then recorded using EnVision-Alpha Reader. Levels of Aβ 40 in the culture supernatants were calculated as percentage of maximum signal (cells treated with 1% DMSO without inhibitor). The IC50 values were calculated using the Excel XLfit software.
With `CC1(C)C(N)=N[C@](C)(c2cc(NC(=O)c3ccc(OCC(F)(F)C(F)F)cn3)ccc2F)[C@@H]2CCN=[S@@]21=O` [Example 12AB, N-(3-((3aS,4R,8R)-6-amino-4,7,7-trimethyl-8-oxido-3,3a,4,7-tetrahydro-2H-isothiazolo[1,5-a][1,4]thiazin-4-yl)-4-fluorophenyl)-5-(2,2,3,3-tetrafluoropropoxy)picolinamide], the IC50 turned out to be 1400 pM.

As to `CCOc1cnc(C(=O)Nc2ccc(F)c([C@@]3(C)N=C(N)C(C)(C)[S@@]4(=O)=NCC[C@@H]34)c2)cn1` [Example 27AB, N-(3-((3aS,4R,8R)-6-amino-4,7,7-trimethyl-8-oxido-3,3a,4,7-tetrahydro-2H-isothiazolo[1,5-a][1,4]thiazin-4-yl)-4-fluorophenyl)-5-ethoxypyrazine-2-carboxamide], the IC50 stood at 400 pM.

Consider `CC1(C)C(N)=N[C@](C)(c2cc(NC(=O)c3ncc(C#N)cc3Cl)ccc2F)[C@@H]2CCN=[S@@]21=O` [Example 2AB, N-(3-((3aS,4R,8R)-6-amino-4,7,7-trimethyl-8-oxido-3,3a,4,7-tetrahydro-2H-isothiazolo[1,5-a][1,4]thiazin-4-yl)-4-fluorophenyl)-3-chloro-5-cyanopicolinamide], for which the IC50 is 1000 pM.

Regarding `Cc1ncc(C(=O)Nc2ccc(F)c([C@@]3(C)N=C(N)C(C)(C)[S@@]4(=O)=NCC[C@@H]34)c2)cn1` [Example 21AB, N-(3-((3aS,4R,8R)-6-amino-4,7,7-trimethyl-8-oxido-3,3a,4,7-tetrahydro-2H-isothiazolo[1,5-a][1,4]thiazin-4-yl)-4-fluorophenyl)-2-methylpyrimidine-5-carboxamide], the IC50 came out at 914000 pM.

Consider `CC1(C)C(N)=N[C@](C)(c2cc(NC(=O)c3ncc(F)cc3F)ccc2F)[C@@H]2CCN=[S@@]21=O` [Example 19AB, N-(3-((3aS,4R,8R)-6-amino-4,7,7-trimethyl-8-oxido-3,3a,4,7-tetrahydro-2H-isothiazolo[1,5-a][1,4]thiazin-4-yl)-4-fluorophenyl)-3,5-difluoropicolinamide], for which the IC50 came to 1300 pM.

For `CC1(C)C(N)=N[C@](C)(c2cc(NC(=O)c3nn(C(F)F)cc3Cl)ccc2F)[C@@H]2CCN=[S@@]21=O` [Example 6AB, N-(3-((3aS,4R,8R)-6-amino-4,7,7-trimethyl-8-oxido-3,3a,4,7-tetrahydro-2H-isothiazolo[1,5-a][1,4]thiazin-4-yl)-4-fluorophenyl)-4-chloro-1-(difluoromethyl)-1H-pyrazole-3-carboxamide], the IC50 came out at 1100 pM.

In the case of `Cc1ccc(C(=O)Nc2ccc(F)c([C@@]3(C)N=C(N)C(C)(C)[S@@]4(=O)=NCC[C@@H]34)c2)nc1` [Example 20AB, N-(3-((3aS,4R,8R)-6-amino-4,7,7-trimethyl-8-oxido-3,3a,4,7-tetrahydro-2H-isothiazolo[1,5-a][1,4]thiazin-4-yl)-4-fluorophenyl)-5-methylpicolinamide], the 50% inhibitory concentration (IC50) amounted to 400 pM.

Consider `Cc1cnc(C(=O)Nc2ccc(F)c([C@@]3(C)N=C(N)C(C)(C)[S@@]4(=O)=NCC[C@@H]34)c2)c(C)c1` [Example 23AB, N-(3-((3aS,4R,8R)-6-amino-4,7,7-trimethyl-8-oxido-3,3a,4,7-tetrahydro-2H-isothiazolo[1,5-a][1,4]thiazin-4-yl)-4-fluorophenyl)-3,5-dimethylpicolinamide], for which the IC50 came to 200 pM.

As to `CC1(C)C(N)=N[C@](C)(c2cc(NC(=O)c3ncc(C(F)(F)F)cc3Cl)ccc2F)[C@@H]2CCN=[S@@]21=O` [Example 8AB, N-(3-((3aS,4R,8R)-6-amino-4,7,7-trimethyl-8-oxido-3,3a,4,7-tetrahydro-2H-isothiazolo[1,5-a][1,4]thiazin-4-yl)-4-fluorophenyl)-3-chloro-5-(trifluoromethyl)picolinamide], the IC50 is 300 pM.

In the case of `CC1(C)C(N)=N[C@](C)(c2cc(NC(=O)c3ccc(OCC(F)F)cn3)ccc2F)[C@@H]2CCN=[S@@]21=O` [Example 10AB, N-(3-((3aS,4R,8R)-6-amino-4,7,7-trimethyl-8-oxido-3,3a,4,7-tetrahydro-2H-isothiazolo[1,5-a][1,4]thiazin-4-yl)-4-fluorophenyl)-5-(2,2-difluoroethoxy)picolinamide], the IC50 worked out at 2200 pM.

`CC1(C)C(N)=N[C@](C)(c2cc(NC(=O)c3ccc(C#N)cn3)ccc2F)[C@@H]2CCN=[S@@]21=O` [Example 16AB, N-(3-((3aS,4R,8R)-6-amino-4,7,7-trimethyl-8-oxido-3,3a,4,7-tetrahydro-2H-isothiazolo[1,5-a][1,4]thiazin-4-yl)-4-fluorophenyl)-5-cyanopicolinamide]: the IC50 amounted to 200 pM.

As for `CC1(C)C(N)=N[C@](C)(c2cc(NC(=O)c3ccc(Cl)cn3)ccc2F)[C@@H]2CCN=[S@@]21=O` [Example 18AB, N-(3-((3aS,4R,8R)-6-amino-4,7,7-trimethyl-8-oxido-3,3a,4,7-tetrahydro-2H-isothiazolo[1,5-a][1,4]thiazin-4-yl)-4-fluorophenyl)-5-chloropicolinamide], the IC50 amounted to 200 pM.

Take `Cc1cc(OC(F)F)cnc1C(=O)Nc1ccc(F)c([C@@]2(C)N=C(N)C(C)(C)[S@@]3(=O)=NCC[C@@H]23)c1` [Example 11AB, N-(3-((3aS,4R,8R)-6-amino-4,7,7-trimethyl-8-oxido-3,3a,4,7-tetrahydro-2H-isothiazolo[1,5-a][1,4]thiazin-4-yl)-4-fluorophenyl)-5-(difluoromethoxy)-3-methylpicolinamide]: the 50% inhibitory concentration (IC50) is 200 pM.

`Cc1cc(C#N)ccc1C(=O)Nc1ccc(F)c([C@@]2(C)N=C(N)C(C)(C)[S@@]3(=O)=NCC[C@@H]23)c1` [Example 9AB, N-(3-((3aS,4R,8R)-6-amino-4,7,7-trimethyl-8-oxido-3,3a,4,7-tetrahydro-2H-isothiazolo[1,5-a][1,4]thiazin-4-yl)-4-fluorophenyl)-4-cyano-2-methylbenzamide]: the half-maximal inhibitory concentration (IC50) was 12300 pM.

As to `CC1(C)C(N)=N[C@](C)(c2cc(NC(=O)c3ccc(OC(F)F)cn3)ccc2F)[C@@H]2CCN=[S@@]21=O` [Example 5AB, N-(3-((3aS,4R,8R)-6-amino-4,7,7-trimethyl-8-oxido-3,3a,4,7-tetrahydro-2H-isothiazolo[1,5-a][1,4]thiazin-4-yl)-4-fluorophenyl)-5-(difluoromethoxy)picolinamide], the IC50 is 600 pM.

As for `COc1ccc(C(=O)Nc2ccc(F)c([C@@]3(C)N=C(N)C(C)(C)[S@@]4(=O)=NCC[C@@H]34)c2)nc1` [Example 24AB, N-(3-((3aS,4R,8R)-6-amino-4,7,7-trimethyl-8-oxido-3,3a,4,7-tetrahydro-2H-isothiazolo[1,5-a][1,4]thiazin-4-yl)-4-fluorophenyl)-5-methoxypicolinamide], the IC50 amounted to 700 pM.

The subject of the next experiment is Aβ40. Nature of the experiment: Lowering of Aβ40 in brain of wild-type mice. The class given is in vivo. The note with it: Mus musculus, po; female C57Bl/6J mice, 30 mg/kg per os, 4 h; brain Aβ40 as percentage of the vehicle group; read-out: Aβ40 (wt mice, brain). Here is the method: Lowering of Aβ40 in Brain of Wild-Type Mice:
Animals and Housing Conditions.
Animals were maintained in a 12/12 h light/dark cycle, with lights starting at 6 a.m., and experiments were conducted during the light phase, Animal housing and experimental procedures were in line with ethical and legal guidelines and were authorized by local veterinary authorities.
Female C57Bl/6J mice were treated with a dose of 30 mg/kg of the compounds, 3-4 animals per treatment group. The test compound was dissolved in 5% EtOH, 10% Solutol, and was applied per os at 10 mL/kg. After 4 h, the animals were sacrificed and brain and plasma were collected. The brain was cut into halves and immediately frozen on dry ice. Brain was used for measurement of Aβ40 and plasma was used for determination of compound exposure. […] Brain tissue was homogenized in 2% DEA buffer in a Roche MagnaLyser (20″, 4000 rpm) and subsequently centrifuged for 1 h at 100000 g. DEA was reduced to 0.2% in 50 mM NaCl and one-half of the DEA lysate was passed over an Oasis Solid phase extraction plate (Waters; cat. no. 186000679), which had been activated with MeOH and equilibrated in dH2O (1 mL each). After washes in 10% and 30% MeOH (1 mL each), the Aβ-peptides were eluted in 0.8 mL of 2% NH4OH in 90% MeOH. The eluate was dried over a N2 flow, and the dried sample was reconstituted in 30 μL of AlphaLISA assay buffer. Aβ40 was determined by an AlphaLISA assay (Perkin-Elmer). In a white 96-well, half area microplate (Perkin-Elmer cat. no. 6005561), 20 μL of the reconstituted sample were mixed with 5 μL of biotinylated BAP-24 (specific for C-terminus of Aβ40) (Brockhaus, M.; Onmberg, J.; Rohrig, S.; Loetscher, H.; Wittenburg, N.; Baumeister, R.; Jacobsen, H.; Haass, C. Caspasemediated cleavage is not required for the activity of presenilins in amyloidogenesis and NOTCH signaling. NeuroReport 1998, 9, 1481-1486.) stock=4.4 mg/mL, f.c.5.5 μg/mL), and 5 μL 252Q6 acceptor beads (252Q6 antibody, Invitrogen AMB0062) had been previously conjugated with AlphaLISA Acceptor beads (Perkin-Elmer cat. no. 6772002); final dilution 1:500). The mix was incubated for 1 h at RT in the dark. Then 20 μL of Streptavin-coated Donor Beads (Perkin-Elmer cat. no. 6760002, final dilution 1:125) were added and this final mix was incubated in the dark for another 30 min at RT before RFU was measured in an AlphaScreen Reader (Perkin-Elmer Envision 2104). The value obtained for A40 in the treated animals was related to the value in the vehicle group and is given in %. Alternatively a commercial ELISA was used for Aβ40 determination (Wako ELISA: (“Human/Rat 3 Amyloid (40) ELISA kit Wako II”; cat nr. 294-64701) following the manufacture's instruction. Also here the Aβ-lowering efficacy was calculated as percentage of the vehicle group.
Regarding `CCOc1cnc(C(=O)Nc2ccc(F)c([C@@]3(C)N=C(N)C(C)(C)[S@@]4(=O)=NCC[C@@H]34)c2)cn1` [Example 27AB, N-(3-((3aS,4R,8R)-6-amino-4,7,7-trimethyl-8-oxido-3,3a,4,7-tetrahydro-2H-isothiazolo[1,5-a][1,4]thiazin-4-yl)-4-fluorophenyl)-5-ethoxypyrazine-2-carboxamide], the response vs control in vivo at 30 mg/kg turned out to be 9%.

On to `CC1(C)C(N)=N[C@](C)(c2cc(NC(=O)c3ncc(C#N)cc3Cl)ccc2F)[C@@H]2CCN=[S@@]21=O` [Example 2AB, N-(3-((3aS,4R,8R)-6-amino-4,7,7-trimethyl-8-oxido-3,3a,4,7-tetrahydro-2H-isothiazolo[1,5-a][1,4]thiazin-4-yl)-4-fluorophenyl)-3-chloro-5-cyanopicolinamide], for which the response vs control in vivo at 30 mg/kg was found to be 80%.
